Measurements as given in patent US12234299B2, “Peptides for inducing bacteriocin synthesis and methods to identify and/or select and/or optimize the same” (SYNGULON S.A., priority 2018, dated 2025).

Columns and labels:
ScuR = experiment: Mobility shift assay (EMSA) of promoter probes with purified ScuR and synthetic peptide; type: binding, Streptococcus salivarius; conditions: ScuR 4 μM; peptide 2:2 dilutions from 20 μM; FIG. 10B
Procedure: All double-stranded DNA fragments (30 or 40 bp) were obtained from annealing of single-stranded Cy3-labelled (at 5′ end) and unlabeled oligonucleotides. Typically, a gel shift reaction (20 μl) was performed in a binding buffer (20 mM Tris-HCl pH 8.0, 150 mM NaCl, 1 mM EDTA, 1 mM DTT, 10% glycerol, 1 mg ml-1 BSA) and contained 150 ng labelled probe and […] StrepTag proteins. When necessary, […] of ComS peptides (unless otherwise stated) are added. The reaction is incubated at 37° C. for 10 min prior to loading of the samples on a native TBE 5% gel. The gel is next subjected to 80 V for approximately 1 h in TBE buffer. DNA complexes were detected by fluorescence on the Ettan DIGE Imager with bandpass excitation filters (nm): 540/25 (Cy3) or 635/30 (Cy5) and bandpass emission filters: 595/25 (Cy3) or 680/30 (Cy5) (GE Healthcare, Waukesha, WI).
The PCR-amplified scuR-StrepTag and gene sarF-StrepTag were cloned into the pBAD-comR-ST vector (see supplemental information). The ComR-StrepTag, ScuR-StrepTag and SarF-StrepTag recombinant proteins were overproduced in E. coli and purified as previously described (Fontaine et al., 2013) in standard native conditions on Strep-Tactin agarose beads (IBA).

[1] = test system: sptA promoter (PsptA), ScuR/SarF system; experiment: Luciferase (luxAB) promoter activity of PsptA with exogenous synthetic peptides; type: cell-based, Streptococcus salivarius HSISS4; conditions: for Maximal activity of PsptA exposed to sBI7 mutant peptides, low concentration: 0.001 μM (1 nM) peptide, FIG. 3C; for Maximal activity of PsptA exposed to sBI7 mutant peptides, high concentration: 1 μM peptide, FIG. 3E
Procedure: (§1) Overnight precultures were diluted at a final OD600 of 0.05. A volume of 300 μl of culture samples was incubated in the wells of a sterile covered white microplate with a transparent bottom (Greiner, Alphen a/d Rijn, The Netherlands) for 75 min at 37° C. and then supplemented with synthetic peptides (1 μM, except if otherwise stated) or DMSO, and xylose where required. Growth (OD600) and luciferase (Lux) activity (expressed in relative light units) was monitored at 10 min intervals during 24 h in a multi-wells plate reader (Hidex Sense, Hidex, Turku, Finland) as previously described (Fontaine et al., 2013).

sptA promoter (PsptA) = experiment: PsptA-luxAB activity with xylose-induced intracellularly expressed peptides; type: cell-based, Streptococcus salivarius
Source text: (§2) To generate the two DNA libraries encoding randomized sequence of small peptides, we performed overlapping PCRs to graft fragments encompassing the follow features: (1) a 5′ recombination arm (for the ectopic tRNA^ser locus); (2) the xylR gene that codes for the xylose responsive regulator; (3) either Pxyl1 (library I) or Pxyl2 (library II) translationally-fused to a 12 codon long gene, for which the last 7 are randomized; (4) the spec gene; (5) a 3′ recombination arm (for the ectopic tRNA^ser locus). To obtain the randomized DNA stretch, we used a 78 nucleotide long primer degenerated on 21 contiguous positions. Next, we transformed these two libraries in strains containing the sptA promoter translationally-fused to the cat gene (chloramphenicol resistance) in which the associated spec gene was excised by the previously described cre-lox method. The initial background of these strains were either a comR-overexpressing (Pxyl1-comR) or a salivaricin-deprived (Δslv5) strain. We plated transformed cells on solid medium supplemented with xylose (either 0.1 or 1%), chloramphenicol ([…]) and spectinomycin ([…]) and grew overnight. We restreaked single colonies on fresh chloramphenicol and spectinomycin solid medium supplemented or not with xylose.
as §1

[2] = test system: sptA promoter (PsptA) fused to cat, ScuR/SarF; experiment: Randomized peptide screen (PsptA-cat, chloramphenicol resistance on xylose); type: cell-based, Streptococcus salivarius; conditions: xylose 0.1 or 1%; PsptA-cat reporter
Source text: as §2

Candida species = conditions: Shekh and Roy (2012); cited from earlier work
[3] = test system: fungal microbial organism; conditions: literature; cited from earlier work
[4] = test system: bacteriocin gene promoters (salivaricin promoters); experiment: Luciferase (luxAB) activity of bacteriocin gene (salivaricin) promoters; type: cell-based, Streptococcus salivarius HSISS4; conditions: 1 μM; FIG. 7
Procedure: as §1

[5] = test system: pathogenic Gram-positive and Gram-negative bacteria; conditions: Acuna et al. (2012); cited from earlier work

LAFWDSLG [Leu-Ala-Phe-Trp-Asp-Ser-Leu-Gly]
ScuR binding to PsptA probe (ScuR): more intense
induction of the sptA promoter in vivo ([1]; 1 μM, FIG. 10A): able to induce the sptA promoter in vivo

LAFWDSLGLLL [LAFWDSLG with a triple leucine extension at the C-terminus (precursor peptide)]
ScuR binding to PsptA probe (ScuR): requires extreme concentration
induction of the sptA promoter in vivo ([1]; 1 μM, FIG. 10A): able to induce the sptA promoter in vivo
PsptA induction of the longer peptide relative to the shorter one ([1]; 1 μM, induction magnitude comparable to sBI7, FIG. 10A): much more active at 1 μM concentration than the shorter one

MIAILPFWLILG [BI7, genome-encoded screen peptide]
xylose-driven PsptA activity in comR or sarF deletion backgrounds (sptA promoter (PsptA); 0.1% xylose, FIG. 2D): neither comR nor sarF deletion has a dramatic effect
xylose-driven PsptA activity in scuR deletion background (sptA promoter (PsptA); 0.1% xylose, FIG. 2D): annihilates both xylose induction and basal leaky expression

MIAILRPH [BM1, irrelevant genome-encoded peptide, negative control clone, reference compound]
potentiation of PsptA-luxAB promoter activity by xylose addition (sptA promoter (PsptA); xylose 0.1% or 1% vs mock, FIG. 2B): no effect
growth on chloramphenicol with vs without xylose [2]: xylose-independent growth

WLPPAGLLGRCGRWFRPWLLWLQ SGAQY KWLGNLFGLGPK (WLPPAGLLGRCGRWFRPWLLWLQSGAQYKWLGNLFGLGPK; Enterococcus faecalis peptide)
neutralizing activity against Candida species (Candida species): neutralizing activity against Candida species

botrycidin AJ1316
antifungal activities [3]: antifungal activities

sBI7^G→A: sBI7 variant, C-terminal glycine substituted by alanine (LPFWLILA)
Maximal activity of PsptA exposed to sBI7 mutant peptides, low concentration [1]: decreases the PsptA response
Maximal activity of PsptA exposed to sBI7 mutant peptides, high concentration [1]: activate Pcat at a similar range than the WT sBI7 peptide
Maximal activity of salivaricin (bacteriocin gene) promoters exposed to mutant peptides [4]: low to high activation disability

sBI7^W→A: sBI7 variant, ultra-conserved tryptophan substituted by alanine (LPFALILG)
Maximal activity of PsptA exposed to sBI7 mutant peptides, low concentration [1]: neither alanine (sBI7^W→A) nor phenylalanine (sBI7^W→F) variants sustains luciferase transcription
Maximal activity of salivaricin (bacteriocin gene) promoters exposed to mutant peptides [4]: total inefficacy

sBI7^W→F: sBI7 variant, ultra-conserved tryptophan substituted by phenylalanine (LPFFLILG)
Maximal activity of PsptA exposed to sBI7 mutant peptides, low concentration [1]: neither alanine (sBI7^W→A) nor phenylalanine (sBI7^W→F) variants sustains luciferase transcription
Maximal activity of PsptA exposed to sBI7 mutant peptides, high concentration [1]: activate Pcat at a similar range than the WT sBI7 peptide
Maximal activity of salivaricin (bacteriocin gene) promoters exposed to mutant peptides [4]: low to high activation disability

B1: Ent35-MccV: hybrid bacteriocin: N-terminal glycine, Enterocin CRL35, a linker comprising three glycines, and a C-terminal Microcin V (protein)
chain: GKYYGNGVSCNKKGCSVDWGRAIGIIGNNSAANLATGGAAGWKSGGGASGRDIAMAIGTLSGQFVAGGIGAAAGGVAGGAIYDYASTHKPNPAMSPSGLGGTIKQKPEGIPSEAWNYAAGRLCNWSPNNLSDVCL
modifications: Hybrid bacteriocin Ent35-MccV
notes: hybrid bacteriocin: N-terminal glycine, Enterocin CRL35, a linker comprising three glycines, and a C-terminal Microcin V
antimicrobial activity [5]: displays antimicrobial activity against pathogenic Gram-positive and Gram-negative bacteria
